Experimental data from patent US8372600B2, “Method and apparatus for measuring changes in cell volume” (priority 2004, dated 2013).

Legend:
[1] = system: E. Coli strain (BL21(DE3)); assay: Antibiotic sensitivity of suspended bacteria: growth monitored by chamber resistance; format: cell-based; conditions: 50 μg/ml and 10 μg/ml, 24° C., FIG. 14
Method: To test the microfluidic chip performance with suspended cells, the first chamber was perfused with an E. Coli suspension. The E. Coli strain (BL21(DE3)) harbors a plasmid that confers resistance to kanamycin. The cells were tested for antibiotic sensitivity by adding varying concentrations of carbenicillin—an antibiotic to which the bacteria are susceptible. After filling the chamber with bacteria, flow was stopped and the chamber resistance monitored. […] By adding specific ligands, such as antibodies, to the walls of the measuring chamber, specific microorganisms can be purified, concentrated and assayed in a single step. Since cellular organelles are similar in size to bacteria, the present invention can also be used to study the metabolism of mitochondria, chloroplasts, and vesicles or organelles such as the ER.

[2] = biological target: T1, P2X7 (purinergic ion channels) (Homo sapiens, UniProt Q99572); assay: Volume change of HEK cells transfected with P2X7, measured in the chamber; format: cell-based
T1 construct: expressed in transfected cells; host or cells: HEK cells
T1 sequence (Q99572 1-595): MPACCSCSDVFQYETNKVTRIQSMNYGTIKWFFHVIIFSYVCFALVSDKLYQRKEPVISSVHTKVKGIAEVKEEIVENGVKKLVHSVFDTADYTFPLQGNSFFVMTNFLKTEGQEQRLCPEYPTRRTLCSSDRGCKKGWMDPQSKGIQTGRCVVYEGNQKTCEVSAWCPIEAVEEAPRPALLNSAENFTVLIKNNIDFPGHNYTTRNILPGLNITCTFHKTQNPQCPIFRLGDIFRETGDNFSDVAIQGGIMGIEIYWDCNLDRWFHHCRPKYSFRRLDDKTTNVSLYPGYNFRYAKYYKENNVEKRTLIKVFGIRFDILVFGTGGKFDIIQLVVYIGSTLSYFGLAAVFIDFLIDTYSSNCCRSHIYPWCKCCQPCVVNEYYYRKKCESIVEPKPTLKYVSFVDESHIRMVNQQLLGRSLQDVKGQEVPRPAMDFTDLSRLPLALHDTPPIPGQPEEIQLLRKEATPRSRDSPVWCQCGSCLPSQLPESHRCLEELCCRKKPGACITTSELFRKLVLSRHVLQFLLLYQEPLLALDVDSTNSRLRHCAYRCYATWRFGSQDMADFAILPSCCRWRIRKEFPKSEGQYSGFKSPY
Source text: The chamber is sensitive to more than toxic or anisotonic media. […] Thus, the device can serve as a coarse grained substitute for common (but slow) electrophysiologically assays.

[3] = system: astrocyte RVD; assay: Astrocyte regulatory volume decrease (RVD) under a 188 mOsm hypotonic stimulus, measured as chamber resistance in the microfluidic chip; format: cell-based, rat; conditions: 188 mOsm stimulus; for Effect on RVD: FIG. 13
Source text: A microfluidic chip comprising a channel 15 μm deep and 1.5 mm wide was fabricated an connected to a fluid inlet and a fluid outlet. Along the length of the channel, there were two chambers (labeled 22 and 24 in FIGS. 1-3). Chamber 22 was configured for measuring cell volume and comprised a depth of 15 μm. Chamber 24 was deeper (55 μm) and served as a calibrating chamber for monitoring solution resistivity. Thin film platinum electrodes disposed in each chamber formed a four-point probe for measuring the chamber impedance. The chip was mounted on an acrylic platform to mate with external fluid connections. For testing adherent cells, the cells were cultured on glass coverslips and inverted on top of the chip so that the cells faced chamber 22. The coverslip was pressed against the chip with a clamp that applied a uniform force of approximately 50 N. For the electrical measurements, an active current source providing 1 μA of a 50 Hz sinusoid was applied to the two outer electrodes. Low frequency stimulation was utilized to minimize the dielectric loss in the silicon and to reduce the demands on the common mode rejection of the voltage amplifier. The voltage between the two inner electrodes was measured using a homemade instrumentation amplifier with input currents <1 pA to reduce polarization. A lock-in amplifier provided rectification and filtering.
To test the microfluidic chip performance with living cells, examination of the volume regulatory response of rat astrocytes was conducted. Solution osmolality was adjusted using mannitol, which allowed a constant ionic strength to be maintained. For the most critical tests, the solution conductivities were finely titrated to be equal at all osmotic pressures; the flow rate was constant at approximately 0.3 μl/s. FIGS. 10 and 11 show the astrocytes' response to perfusion with hypotonic and hypertonic stimuli. Hypotonic media caused a rapid (˜1 min) increase in volume followed by a slow (10 min) decrease—the well known regulatory volume decrease (RVD). RVD in astrocytes is due to the efflux of KCl and neutral organic osmolytes such as taurine. The time course and extent of RVD using 188, 220, and 273 mOsm solutions (FIG. 10) are in agreement with published data. RVD in other cell types was tested, including HEK and MDCK, and similar responses were identified. However, the RVI was only observed with mild stimuli (<345 mOsm) (FIG. 11). Similar results have been previously reported for astrocytes. The RVI under the above conditions is driven by Na^+, K^+, and Cl^− fluxes through a co-transporter.
A microfluidic chip was tested by screening peptides isolated from the tarantula Grammostola spatulata. The peptides were added to a hypotonic perfusate and their effects on astrocyte RVD were examined. […]

[4] = system: GH3 cells; conditions: previously known; cited from earlier work

CC1(C)S[C@@H]2[C@H](NC(=O)C(C(=O)O)c3ccccc3)C(=O)N2[C@H]1C(=O)O (some centres unmarked) [Carbenicillin, carbenicillin]
Time until growth was visibly slowed [1]: ≤ 15 min
Effect on bacterial growth ([1]; concentration dependent): visibly slowed growth

Nc1ncnc2c1ncn2[C@@H]1O[C@H](COP(=O)(O)OP(=O)(O)OP(=O)(O)O)[C@@H](O)[C@H]1O [ATP]
Cell volume response following activation [2]: reversible volume changes

GsMTx1
Reduction of RVD ([3]; 100 pM peptide in hypotonic perfusate): about 50%
Effect on RVD ([3]; 1 nM peptide in hypotonic perfusate): completely blocked
Effect on RVD ([3]; 10 nM peptide in hypotonic perfusate): completely blocked
Effect on RVD ([3]; 1 μM peptide in hypotonic perfusate): completely blocked
Effect on swelling-induced Ca2+ uptake [4]: block
